Measured values taken from patent publication US20240208961A1, “EIF4E INHIBITORS AND USES THEREOF” (PIC Therapeutics, Inc., priority 2022, published 2024).
Several values for one entry are separate records, joined by “and”; a condition that tells them apart may be missing. Equal values may be shown once. Read-outs that look alike come from different tables or passages of the source.

Assay: Pharmacokinetic study of I-11 in female BALB/c mice (Example 4)
Format: in vivo, Balb/c mouse
Method: Pharmacokinetic Study in Female BALB/c Mice: Balb/c mouse, 17-19 g, 8-10 weeks, female, N=27, purchased from JH Laboratory Animal Co. LTD
Fasted overnight and fed at 4 hr post dosing.
Animals dosed with sampling at 0.083, 0.25, 0.5, 1, 2, 4, 8, 24 hr post dose. 8 time points. Semi-serial bleeding for plasma only. The animals were restrained manually at the designated time points. Approx. 110 μL of blood/time point was taken from the animals via facial vein into tubes with K2EDTA. Blood sample was centrifuged at 4° C. (2000 g, 5 min) to obtain plasma within 15 m after sample collection. Put on wet ice, then plasma samples were stored at approximately −70° C. until analysis.
For oral gavage, compound was dosed as a suspension in […] carboxymethyl cellulose (CMC), 0.2% Tween 80 in water. Compound was orally dosed at 50 mg/Kg, at 100 mg/Kg.
For IV dosing, compound was dissolved into a solution of […], […] HS 15 and 90% Saline. Compound was IV dosed at 5 mg/Kg.
Plasma samples were analyzed for I-11 using LC-MS using a calibration curve of known concentrations.
FIG. 1 describes the mean plasma concentration-time profiles of I-11 after single IV dose of 5 mg/kg, PO dose of 50 mg/kg and 100 mg/kg in female Balb/c mice (N=3/time point). • Note: • 1. […] The IV dosing solutions were prepared in 5% DMSO+5% Solutol HS15+90% Saline. The PO dosing solutions were prepared in 1% CMC-Na+0.2% Tween 80 in water. • 3. BQL=Below quantifiable limit of 3.00 ng/mL for I-11 in female Balb/c mouse plasma samples. • 4. PK parameters were estimated by non-compartmental model using WinNonlin 8.2. If the adjusted rsq (linear regression coefficient of the concentration value on the terminal phase) is less than 0.9, T1/2 might not be accurately estimated. • 5. F value was determined by the following equation: • If AUClast/AUCINF>80%:
F=(AUCINF-EX×DOSEIV)/(AUCINF-IV×DOSEEX)[…] • If AUClast/AUCINF<80% or AUCINF not available:
F=([…])/(AUClast-IV×DOSEEX)[…] • 6. NA: Not available.

[1] = IV 5 mg/kg, 24 hr, BQL = below quantifiable limit of 3.00 ng/mL

## CC(C)Cc1sc(Nc2ncc(-c3cccs3)cc2C(=O)O)nc1C(C)(C)C [Compound I-11]
IV 5 mg/kg, 0.083 hr, 5 mg/kg
  Plasma concentration Individual: 9810 ng/mL and 12300 ng/mL
IV 5 mg/kg, 0.25 hr, 5 mg/kg
  Plasma concentration Individual: 5200 ng/mL and 5420 ng/mL
IV 5 mg/kg, 0.5 hr, 5 mg/kg
  Plasma concentration Individual: 2920 ng/mL and 1730 ng/mL
IV 5 mg/kg, 1 hr, 5 mg/kg
  Plasma concentration Individual: 865 ng/mL and 1180 ng/mL and 1810 ng/mL
IV 5 mg/kg, 2 hr, 5 mg/kg
  Plasma concentration Individual: 142 ng/mL
IV 5 mg/kg, 4 hr, 5 mg/kg
  Plasma concentration Individual: 48.5 ng/mL and 29.8 ng/mL
IV 5 mg/kg, 8 hr, 5 mg/kg
  Plasma concentration Individual: 26.1 ng/mL and 15.9 ng/mL
[1]
  Plasma concentration Individual: BQL
  Plasma concentration Mean: BQL
IV 5 mg/kg, PO 50 and 100 mg/kg single dose
  abnormal clinical symptoms during in-life study: No abnormal clinical symptoms were observed
PO 50 mg/kg vs IV 5 mg/kg
  F: 50.9%
PO 50 mg/kg, 0.083 hr, 50 mg/kg
  Plasma concentration Individual: 288 ng/mL and 220 ng/mL
PO 50 mg/kg, 0.25 hr, 50 mg/kg
  Plasma concentration Individual: 1880 ng/mL and 2380 ng/mL and 1030 ng/mL
PO 50 mg/kg, 0.5 hr, 50 mg/kg
  Plasma concentration Individual: 6750 ng/mL and 6980 ng/mL
PO 50 mg/kg, 1 hr, 50 mg/kg
  Plasma concentration Individual: 5940 ng/mL and 6670 ng/mL
PO 50 mg/kg, 2 hr, 50 mg/kg
  Plasma concentration Individual: 7770 ng/mL and 3890 ng/mL
PO 50 mg/kg, 4 hr, 50 mg/kg
  Plasma concentration Individual: 1750 ng/mL and 2280 ng/mL
PO 50 mg/kg, 8 hr, 50 mg/kg
  Plasma concentration Individual: 249 ng/mL and 325 ng/mL
PO 50 mg/kg, 24 hr, 50 mg/kg
  Plasma concentration Individual: 3.85 ng/mL and 64.0 ng/mL and 182 ng/mL
PO 100 mg/kg vs IV 5 mg/kg
  F: 60.0%
PO 100 mg/kg, 0.083 hr, 100 mg/kg
  Plasma concentration Individual: 318 ng/mL and 232 ng/mL
PO 100 mg/kg, 0.25 hr, 100 mg/kg
  Plasma concentration Individual: 2990 ng/mL and 2700 ng/mL
PO 100 mg/kg, 0.5 hr, 100 mg/kg
  Plasma concentration Individual: 4890 ng/mL and 6670 ng/mL and 11900 ng/mL
PO 100 mg/kg, 1 hr, 100 mg/kg
  Plasma concentration Individual: 6710 ng/mL and 7030 ng/mL
PO 100 mg/kg, 2 hr, 100 mg/kg
  Plasma concentration Individual: 14100 ng/mL and 12300 ng/mL
PO 100 mg/kg, 4 hr, 100 mg/kg
  Plasma concentration Individual: 4840 ng/mL and 6930 ng/mL and 12800 ng/mL
PO 100 mg/kg, 8 hr, 100 mg/kg
  Plasma concentration Individual: 444 ng/mL and 503 ng/mL and 953 ng/mL
PO 100 mg/kg, 24 hr, 100 mg/kg
  Plasma concentration Individual: 40.6 ng/mL and 57.5 ng/mL and 84.2 ng/mL
female, BALB/c, mouse, plasma, iv, 5 mg/kg, IV 5 mg/kg
  clearance: 15.8 mL/min/kg
female, BALB/c, mouse, plasma, iv, 5 mg/kg, IV 5 mg/kg, 0.083 hr, read-out: Plasma concentration Individual
  concentration at 0.083 hr: 7980 ng/mL
female, BALB/c, mouse, plasma, iv, 5 mg/kg, IV 5 mg/kg, 0.083 hr, read-out: Plasma concentration Mean
  concentration at 0.083 hr: 10000 ng/mL
female, BALB/c, mouse, plasma, iv, 5 mg/kg, IV 5 mg/kg, 0.25 hr, read-out: Plasma concentration Individual
  concentration at 0.25 hr: 5600 ng/mL
female, BALB/c, mouse, plasma, iv, 5 mg/kg, IV 5 mg/kg, 0.25 hr, read-out: Plasma concentration Mean
  concentration at 0.25 hr: 5410 ng/mL
female, BALB/c, mouse, plasma, iv, 5 mg/kg, IV 5 mg/kg, 0.5 hr, read-out: Plasma concentration Individual
  concentration at 0.5 hr: 2710 ng/mL
female, BALB/c, mouse, plasma, iv, 5 mg/kg, IV 5 mg/kg, 0.5 hr, read-out: Plasma concentration Mean
  concentration at 0.5 hr: 2450 ng/mL
female, BALB/c, mouse, plasma, iv, 5 mg/kg, IV 5 mg/kg, 1 hr, read-out: Plasma concentration Mean
  concentration at 1 hr: 1280 ng/mL
female, BALB/c, mouse, plasma, iv, 5 mg/kg, IV 5 mg/kg, 2 hr, read-out: Plasma concentration Individual
  concentration at 2 hr: 135 ng/mL
female, BALB/c, mouse, plasma, iv, 5 mg/kg, IV 5 mg/kg, 2 hr, read-out: Plasma concentration Mean
  concentration at 2 hr: 140 ng/mL
female, BALB/c, mouse, plasma, iv, 5 mg/kg, IV 5 mg/kg, 4 hr, read-out: Plasma concentration Individual
  concentration at 4 hr: 58.3 ng/mL
female, BALB/c, mouse, plasma, iv, 5 mg/kg, IV 5 mg/kg, 4 hr, read-out: Plasma concentration Mean
  concentration at 4 hr: 45.5 ng/mL
female, BALB/c, mouse, plasma, iv, 5 mg/kg, IV 5 mg/kg, 8 hr, read-out: Plasma concentration Individual
  concentration at 8 hr: 19 ng/mL
female, BALB/c, mouse, plasma, iv, 5 mg/kg, IV 5 mg/kg, 8 hr, read-out: Plasma concentration Mean
  concentration at 8 hr: 20.3 ng/mL
female, BALB/c, mouse, plasma, po, 50 mg/kg, PO 50 mg/kg, 0.083 hr, read-out: Plasma concentration Individual
  concentration at 0.083 hr: 263 ng/mL
female, BALB/c, mouse, plasma, po, 50 mg/kg, PO 50 mg/kg, 0.083 hr, read-out: Plasma concentration Mean
  concentration at 0.083 hr: 257 ng/mL
female, BALB/c, mouse, plasma, po, 50 mg/kg, PO 50 mg/kg, 0.25 hr, read-out: Plasma concentration Mean
  concentration at 0.25 hr: 1760 ng/mL
female, BALB/c, mouse, plasma, po, 50 mg/kg, PO 50 mg/kg, 0.5 hr, read-out: Plasma concentration Individual
  concentration at 0.5 hr: 3830 ng/mL
female, BALB/c, mouse, plasma, po, 50 mg/kg, PO 50 mg/kg, 0.5 hr, read-out: Plasma concentration Mean
  concentration at 0.5 hr: 5850 ng/mL
female, BALB/c, mouse, plasma, po, 50 mg/kg, PO 50 mg/kg, 1 hr, read-out: Plasma concentration Individual
  concentration at 1 hr: 8760 ng/mL
female, BALB/c, mouse, plasma, po, 50 mg/kg, PO 50 mg/kg, 1 hr, read-out: Plasma concentration Mean
  concentration at 1 hr: 7120 ng/mL
female, BALB/c, mouse, plasma, po, 50 mg/kg, PO 50 mg/kg, 2 hr, read-out: Plasma concentration Individual
  concentration at 2 hr: 7260 ng/mL
female, BALB/c, mouse, plasma, po, 50 mg/kg, PO 50 mg/kg, 2 hr, read-out: Plasma concentration Mean
  concentration at 2 hr: 6310 ng/mL
female, BALB/c, mouse, plasma, po, 50 mg/kg, PO 50 mg/kg, 4 hr, read-out: Plasma concentration Individual
  concentration at 4 hr: 1170 ng/mL
female, BALB/c, mouse, plasma, po, 50 mg/kg, PO 50 mg/kg, 4 hr, read-out: Plasma concentration Mean
  concentration at 4 hr: 1730 ng/mL
female, BALB/c, mouse, plasma, po, 50 mg/kg, PO 50 mg/kg, 8 hr, read-out: Plasma concentration Individual
  concentration at 8 hr: 367 ng/mL
female, BALB/c, mouse, plasma, po, 50 mg/kg, PO 50 mg/kg, 8 hr, read-out: Plasma concentration Mean
  concentration at 8 hr: 314 ng/mL
female, BALB/c, mouse, plasma, po, 50 mg/kg, PO 50 mg/kg, 24 hr
  concentration at 24 hr: 83.3 ng/mL
female, BALB/c, mouse, plasma, po, 100 mg/kg, PO 100 mg/kg, 0.083 hr, read-out: Plasma concentration Individual
  concentration at 0.083 hr: 188 ng/mL
female, BALB/c, mouse, plasma, po, 100 mg/kg, PO 100 mg/kg, 0.083 hr, read-out: Plasma concentration Mean
  concentration at 0.083 hr: 246 ng/mL
female, BALB/c, mouse, plasma, po, 100 mg/kg, PO 100 mg/kg, 0.25 hr, read-out: Plasma concentration Individual
  concentration at 0.25 hr: 2690 ng/mL
female, BALB/c, mouse, plasma, po, 100 mg/kg, PO 100 mg/kg, 0.25 hr, read-out: Plasma concentration Mean
  concentration at 0.25 hr: 2790 ng/mL
female, BALB/c, mouse, plasma, po, 100 mg/kg, PO 100 mg/kg, 0.5 hr, read-out: Plasma concentration Mean
  concentration at 0.5 hr: 7820 ng/mL
female, BALB/c, mouse, plasma, po, 100 mg/kg, PO 100 mg/kg, 1 hr, read-out: Plasma concentration Individual
  concentration at 1 hr: 8840 ng/mL
female, BALB/c, mouse, plasma, po, 100 mg/kg, PO 100 mg/kg, 1 hr, read-out: Plasma concentration Mean
  concentration at 1 hr: 7530 ng/mL
female, BALB/c, mouse, plasma, po, 100 mg/kg, PO 100 mg/kg, 2 hr, read-out: Plasma concentration Individual
  concentration at 2 hr: 18600 ng/mL
female, BALB/c, mouse, plasma, po, 100 mg/kg, PO 100 mg/kg, 2 hr, read-out: Plasma concentration Mean
  concentration at 2 hr: 15000 ng/mL
female, BALB/c, mouse, plasma, po, 100 mg/kg, PO 100 mg/kg, 4 hr, read-out: Plasma concentration Mean
  concentration at 4 hr: 8190 ng/mL
female, BALB/c, mouse, plasma, po, 100 mg/kg, PO 100 mg/kg, 8 hr, read-out: Plasma concentration Mean
  concentration at 8 hr: 633 ng/mL
female, BALB/c, mouse, plasma, po, 100 mg/kg, PO 100 mg/kg, 24 hr
  concentration at 24 hr: 60.8 ng/mL
mouse, plasma, IV 5 mg/kg
  AUC(0-inf): 5280 ng·h/mL
  AUC(0-t): 5220 ng·h/mL
  C0: 13600 ng/mL
  MRT inf: 0.73 h
  MRT last: 0.594 h
  half-life: 2.28 h
mouse, plasma, IV 5 mg/kg, read-out: Vss
  Vd: 0.69 L/kg
mouse, plasma, PO 50 mg/kg
  AUC(0-inf): 26900 ng·h/mL
  AUC(0-t): 26400 ng·h/mL
  Cmax: 7120 ng/mL
  MRT inf: 3.79 h
  MRT last: 3.31 h
  Tmax: 1 h
  half-life: 4.05 h
mouse, plasma, PO 100 mg/kg
  AUC(0-inf): 63400 ng·h/mL
  AUC(0-t): 63100 ng·h/mL
  Cmax: 15000 ng/mL
  MRT inf: 3.49 h
  MRT last: 3.37 h
  Tmax: 2 h
  half-life: 3.19 h
